In patent publication US7417052B2, “Phenylene derivative having tetrazole ring or thiazolidinedione ring” (Sankyo Company, Limited, priority 2003, dated 2008):

system: pentosidine (AGEs) formation in serum of kidney failure patients; test: AGEs formation inhibitory effect (pentosidine production in serum protein, HPLC); assay type: biochemical, human; conditions: test compound final concentration 5 mM, incubated at 37° C. for one week, proportion to pentosidine production amount by control
Description: AGEs Formation Inhibitory Effect
A solution (50 μl) of the test compound (final concentration 5 mM) in dimethyl sulfoxide was added to a protein (450 μl, serum of kidney failure patients who gave informed consent), and the mixture was incubated at 37° C. for one week. Pentosidine, which is one of the AGEs produced, was measured as follows. To separate pentosidine produced in the protein, 10% trichloroacetic acid (50 μl) was added to the sample after the reaction (50 μl) and the mixture was centrifuged and the precipitated protein was recovered. The recovered protein was washed with 300 μl of 5% trichloroacetic acid, dried and hydrolyzed with 6N hydrochloric acid (100 μl) at 110° C. for 16 hrs. The amount (nmol/l) of pentosidine produced was measured by HPLC (ODS C18, 4.6×250 mm, 335 nm, 385 nm) using a fluorescence detector by the gradient of 30 min., 1.0 ml/min with 0.1% trifluoroacetic acid added distilled water/0.08% trifluoroacetic acid added 80% acetonitrile as a mobile phase (Miyata, T et al.: J. Am. Soc. Nephrol., 7, 1198-1206, 1996, and Miyata, T. et al.: Proc. Natl. Acad. Sci. USA, 93 2353-2358, 1996).
To study AGEs formation inhibitory effect, the proportion of the aforementioned pentosidine production amount to the pentosidine production amount by control was calculated as pentosidine production rate (%).

Row | Structure (SMILES) | pentosidine production rate (%)
1 | CCCCC(=O)N(Cc1ccc(-c2nnn[nH]2)cc1)c1cccc(C(=O)O)c1 [Example 7, 3-[N-[[4-(1H-tetrazol-5-yl)phenyl]methyl]-N-pentanoylamino]benzoic acid] | 27.2
2 | CCCCC(=O)N(Cc1ccc(-c2ccccc2-c2nnn[nH]2)cc1)c1cccc(C(=O)O)c1 [Example 1, 3-[N-[[4-[2-(1H-tetrazol-5-yl)phenyl]phenyl]methyl]-N-pentanoylamino]benzoic acid] | 18.1
3 | CCCC1Cc2ccc(C(=O)OCc3oc(=O)oc3C)cc2N(Cc2ccc(-c3ccccc3-c3nnn[nH]3)cc2)C1=O (stereo not shown) [Example 12, (5-methyl-2-oxo-1,3-dioxolen-4-yl)methyl2-oxo-3-propyl-1-[[4-[2-(1H-tetrazol-5-yl)phenyl]phenyl]methyl]-1,3,4-trihydroquinoline-7-carboxylate] | 29.0
4 | CCCC1Cc2cc(C(=O)O)ccc2N(Cc2ccc(-c3ccccc3-c3nnn[nH]3)cc2)C1=O (stereo not shown) [Example 11, 2-oxo-3-propyl-1-[[4-[2-(1H-tetrazol-5-yl)phenyl]phenyl]methyl]-1,3,4-trihydroquinoline-6-carboxylic acid] | 24.9
5 | CCCCC(=O)N(Cc1ccc(-c2ccccc2-c2nnn[nH]2)cc1)c1ccccc1C(=O)O [Example 8, 2-[N-[[4-[2-(1H-tetrazol-5-yl)phenyl]phenyl]methyl]-N-pentanoylamino]benzoic acid] | 23.5
6 | CCCCC(=O)N(Cc1ccc(-c2ccccc2-c2nnn[nH]2)cc1)c1cccc(C(=O)OCc2oc(=O)oc2C)c1 [Example 6, (5-methyl-2-oxo-1,3-dioxolen-4-yl)methyl3-[N-[[4-[2-(1H-tetrazol-5-yl)phenyl]phenyl]methyl]-N-pentanoylamino]benzoate] | 16.8
7 | CCCC1Cc2ccc(C(=O)O)cc2N(Cc2ccc(-c3ccccc3-c3nnn[nH]3)cc2)C1=O (stereo not shown) [Example 10, 2-oxo-3-propyl-1-[[4-[2-(1H-tetrazol-5-yl)phenyl]phenyl]methyl]-1,3,4-trihydroquinoline-7-carboxylic acid] | 18.0
8 | CCc1nc2c(C)cc(C)nc2n1Cc1ccc(C2SC(=O)NC2=O)cc1 (stereo not shown) [Example 18, 5-[4-[(2-ethyl-5,7-dimethylimidazo[4,5-b]pyridin-3-yl)methyl]phenyl]-1,3-thiazolidine-2,4-dione] | 18.0
9 | CCCCC(=O)N(Cc1ccc(-c2ccccc2-c2nnn[nH]2)cc1)c1ccc(C(=O)O)cc1 [Example 9, 4-[N-[[4-[2-(1H-tetrazol-5-yl)phenyl]phenyl]methyl]-N-pentanoylamino]benzoic acid] | 30.8
10 | CCCCC(=O)N(Cc1ccc(C2SC(=O)NC2=O)cc1)c1cccc(C(=O)O)c1 (stereo not shown) [Example 22, 3-[N-[4-(2,4-dioxothiazolidin-5-yl)benzyl]-N-pentanoylamino]benzoic acid] | 12.4
11 | CCCc1nc2c(C)cc(C)nc2n1Cc1ccc(C2SC(=O)NC2=O)cc1 (stereo not shown) [Example 19, 5-[4-[(5,7-dimethyl-2-propylimidazo[4,5-b]pyridin-3-yl)methyl]phenyl]-1,3-thiazolidine-2,4-dione] | 23.8
12 | CCCC1Oc2ccc(C(=O)O)cc2N(Cc2ccc(-c3nnn[nH]3)cc2)C1=O (stereo not shown) [Example 15, 3-oxo-2-propyl-4-[4-[4-(1H-tetrazol-5-yl)phenyl]methyl]2-H-benzo[e]1,4-oxazine-6-carboxylic acid] | 23.8
13 | CCCC(=O)N(Cc1ccc(-c2ccccc2-c2nnn[nH]2)cc1)c1cccc(C(=O)O)c1 [Example 4, 3-[N-[[4-[2-(1H-tetrazol-5-yl)phenyl]phenyl]methyl]-N-butanoylamino]benzoic acid] | 17.4
14 | CC(=O)N(Cc1ccc(-c2ccccc2-c2nnn[nH]2)cc1)c1cccc(C(=O)O)c1 [Example 2, 3-[N-[[4-[2-(1H-tetrazol-5-yl)phenyl]phenyl]methyl]-N-acetylamino]benzoic acid] | 26.1
15 | CCC(=O)N(Cc1ccc(-c2ccccc2-c2nnn[nH]2)cc1)c1cccc(C(=O)O)c1 [Example 3, 3-[N-[[4-[2-(1H-tetrazol-5-yl)phenyl]phenyl]methyl]-N-propanoylamino]benzoic acid] | 21.3
16 | CCCC1Sc2ccc(C(=O)O)cc2N(Cc2ccc(-c3nnn[nH]3)cc2)C1=O (stereo not shown) [Example 17, 3-oxo-2-propyl-4-[[4-(1H-tetrazol-5-yl)phenyl]methyl]2-H-benzo[e]1,4-thiazine-6-carboxylic acid] | 35.0
17 | CCCC1Oc2ccc(C(=O)O)cc2N(Cc2ccc(-c3ccccc3-c3nnn[nH]3)cc2)C1=O (stereo not shown) [Example 14, 3-oxo-2-propyl-4-[[4-[2-(1H-tetrazol-5-yl)phenyl]phenyl]methyl]-2H-benzo[e]1,4-oxazine-6-carboxylic acid] | 22.1
18 | O=C1CCc2ccccc2N1Cc1ccc(-c2ccccc2-c2nnn[nH]2)cc1 [Example 13, 1-[[4-[2-(1H-tetrazol-5-yl)phenyl]phenyl]methyl]-1,3,4-trihydroquinolin-2-one] | 45.4
19 | CCCCCCCC(=O)N(Cc1ccc(-c2ccccc2-c2nnn[nH]2)cc1)c1cccc(C(=O)O)c1 [Example 5, 3-[N-[[4-[2-(1H-tetrazol-5-yl)phenyl]phenyl]methyl]-N-octanoylamino]benzoic acid] | 9.33
20 | CCCC1Sc2ccc(C(=O)O)cc2N(Cc2ccc(-c3ccccc3-c3nnn[nH]3)cc2)C1=O (stereo not shown) [Example 16, 3-oxo-2-propyl-4-[[4-[2-(1H-tetrazol-5-yl)phenyl]phenyl]methyl]-2H-benzo[e]1,4-thiazine-6-carboxylic acid] | 25.8

system: not given; test: not given; conditions: not given

Row | Structure (SMILES) | melting point [°C]
21 | CCc1nc2c(C)cc(C)nc2n1Cc1ccc(C2SC(=O)NC2=O)cc1 (stereo not shown) [Example 18, 5-[4-[(2-ethyl-5,7-dimethylimidazo[4,5-b]pyridin-3-yl)methyl]phenyl]-1,3-thiazolidine-2,4-dione] | 221 to 222
22 | CCCC1Oc2ccc(C(=O)O)cc2N(Cc2ccc(-c3ccccc3-c3nnn[nH]3)cc2)C1=O (stereo not shown) [Example 14, 3-oxo-2-propyl-4-[[4-[2-(1H-tetrazol-5-yl)phenyl]phenyl]methyl]-2H-benzo[e]1,4-oxazine-6-carboxylic acid] | 197 to 198
